Values joined by “and” are separate entries in the source; they are usually repeats but may differ in a detail not shown here. Identical values can stand only once.
Key:
[1] = test system: unilaterally 6-hydroxydopamine-lesioned male rats; assay: Rotation experiments (rotometer), LDA administered intraperitoneally; format: in vivo, rat
Protocol: (§1) The in vivo activity of LDA administered intravenously (iv) and intraperitoneally (ip) was evaluated using rotations experiments, conducted and based in accordance with published studies, as follows:
(§2) Briefly, Dunnet's experiment uses PD induced animal models which are treated with a unilateral lesion to the brain that effects their motorial behavior. In case of rats, they turn away from the side of the lesion when treated with an agent which increases the dopamine brain level. In order to quantify this effect, a device called rotometer is used, which records the circling behavior of the tested rat by counting the number of clockwise (CW) and counter clockwise (CCW) rotations the animal is turning in a hemisphere-shaped bowl which encourages a circling behavior.
(§3) Thus, twenty unilaterally 2,4,5-trihydroxyphenethylamine (6-hydroxydopamine)-lesioned male rats, weighing about 300 grams (obtained from Harlan, Rehovoth Israel) were treated with LDA and carbidopa, as is detailed hereinbelow. […] Pharmacol Toxicol. 93(2):66-70].
(§4) Treatment was performed by intravenously or intraperitoneally administering the LDA.
Intraperitoneal Experiments: Four rats were treated with 6-hydroxydopamine (8 μg/rat). Rats were then administered with carbidopa (4 mg/kg i.p), and 15 minutes thereafter with 15 mg/kg LDA, administered intraperitoneally. Immediately after LDA injection the rotometer was activated and the rats were monitored during 3 hours.

[2] = test system: unilaterally 6-hydroxydopamine-lesioned male rats; assay: Rotation experiments (rotometer), LDA administered intravenously; format: in vivo, rat; conditions: for CCW (counter clockwise rotations) / CW (clockwise rotations) / CW − CCW: carbidopa 4 mg/kg ip 15 minutes before, one line per rat, preliminary
Protocol: as §1, §2, §3, §4
Intravenous (iv) Experiments: Rats were intravenously injected with 24 mg/kg or 40 mg/kg LDA. All rats received 4 mg/kg carbidopa, intraperitoneally, 15 minutes before LDA administration.

DOPA decarboxylase = molecular target: T1, DOPA decarboxylase (Mus musculus, UniProt O88533); assay: DOPA-decarboxylase assay (substrate test); format: biochemical; set-up: activity of DOPA decarboxylase with the substance as substrate: unit not given here; conditions: mouse striatum enzyme
T1 construct: using the mouse striatum as a source of the decarboxylase enzyme; from tissue; host or cells: mouse striatum
T1 sequence (O88533 1-480): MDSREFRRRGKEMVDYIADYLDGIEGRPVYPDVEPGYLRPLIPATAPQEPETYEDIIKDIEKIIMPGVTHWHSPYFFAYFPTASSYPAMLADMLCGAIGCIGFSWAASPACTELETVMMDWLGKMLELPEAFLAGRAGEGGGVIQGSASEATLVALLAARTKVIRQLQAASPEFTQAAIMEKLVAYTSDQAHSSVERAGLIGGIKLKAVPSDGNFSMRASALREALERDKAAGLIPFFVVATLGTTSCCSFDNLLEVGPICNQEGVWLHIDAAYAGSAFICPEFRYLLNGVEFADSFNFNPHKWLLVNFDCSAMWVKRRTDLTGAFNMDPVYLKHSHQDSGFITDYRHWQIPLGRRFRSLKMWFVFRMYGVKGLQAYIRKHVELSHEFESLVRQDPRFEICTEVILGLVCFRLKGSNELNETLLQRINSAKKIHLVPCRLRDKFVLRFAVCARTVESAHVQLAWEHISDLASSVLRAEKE
Protocol: DOPA-decarboxylase assay: As discussed hereinabove, one of the limitations associated with treatment with L-DOPA is its decarboxylation in the periphery by a DOPA decarboxylase, which reduces the amount the amount of L-DOPA that crosses the BBB.
The assay was carried out according to Hadjiconstantinou et al. [Aromatic L-amino acid decarboxylase activity of mouse striatum is modulated via dopamine receptors. J Neurochem. 1993 June; 60(6):2175-80], using the mouse striatum as a source of the decarboxylase enzyme.
The activity of the DOPA decarboxylase was thus tested with L-DOPA, DOPA-ethyl ester and LDA. L-DOPA ethyl ester (Compound 1), known as a much poorer substrate of the decarboxylase, served as a control was used as a control in these assays.

[3] = cited from earlier work
[4] = cited from earlier work; remark: listed apart in the source
[5] = LDA 15 mg/kg ip, carbidopa 4 mg/kg ip 15 minutes before, monitored during 3 hours, one line per rat, preliminary

SMILES: NC(=O)[C@@H](N)Cc1ccc(O)c(O)c1 [LDA + Carbidopa]
- CCW (counter clockwise rotations) [1, 5]: 22 and 50 and 74 and 109
- CW (clockwise rotations) [1, 5]: 56 and 361 and 123 and 111
- CW − CCW [1, 5]: 34 and 311 and 49 and 2
- CCW (counter clockwise rotations) ([2]; LDA 24 mg/kg iv): 128 and 134
- CW (clockwise rotations) ([2]; LDA 24 mg/kg iv): 686 and 629
- CW − CCW ([2]; LDA 24 mg/kg iv): 558 and 495
- CCW (counter clockwise rotations) ([2]; LDA 40 mg/kg iv): 724 and 14 and 59
- CW (clockwise rotations) ([2]; LDA 40 mg/kg iv): 1563 and 970 and 573
- CW − CCW ([2]; LDA 40 mg/kg iv): 839 and 956 and 514

SMILES: CCOC(=O)[C@@H](N)Cc1ccc(O)c(O)c1 [Compound 1, L-DOPA ethyl ester]
- activity of DOPA decarboxylase with the substance as substrate (DOPA decarboxylase; Substrate 50 micromoles): 227
- activity of DOPA decarboxylase with the substance as substrate (DOPA decarboxylase; Substrate 100 micromoles): 278
- activity of DOPA decarboxylase with the substance as substrate (DOPA decarboxylase; Substrate 150 micromoles): 328
- activity of DOPA decarboxylase with the substance as substrate (DOPA decarboxylase; Substrate 250 micromoles): 371
- activity of DOPA decarboxylase with the substance as substrate (DOPA decarboxylase; Substrate 500 micromoles): 357
- activity of DOPA decarboxylase with the substance as substrate (DOPA decarboxylase; Substrate 1000 micromoles): 350
- substrate of DOPA decarboxylase, in words (DOPA decarboxylase): poor substrate
- hydrolysis to L-DOPA before reaching the brain ([3]; in vivo): fast hydrolysis
- water solubility [4]: highly water-soluble

SMILES: N[C@@H](Cc1ccc(O)c(O)c1)C(=O)O [L-DOPA, 3,4-dihydroxy-L-phenylalanine]
- activity of DOPA decarboxylase with the substance as substrate (DOPA decarboxylase; Substrate 50 micromoles): 3241
- activity of DOPA decarboxylase with the substance as substrate (DOPA decarboxylase; Substrate 100 micromoles): 3839
- activity of DOPA decarboxylase with the substance as substrate (DOPA decarboxylase; Substrate 150 micromoles): 3828
- activity of DOPA decarboxylase with the substance as substrate (DOPA decarboxylase; Substrate 250 micromoles): 4332
- activity of DOPA decarboxylase with the substance as substrate (DOPA decarboxylase; Substrate 500 micromoles): 4612
- activity of DOPA decarboxylase with the substance as substrate (DOPA decarboxylase; Substrate 1000 micromoles): 3933
- share of administered levodopa that enters the brain unaltered ([3]; peripheral administration): 1-3%
- water solubility [4]: poor water solubility

SMILES: NC(=O)C(N)Cc1ccc(O)c(O)c1 (stereo not drawn) [LDA, α-amino-3,4-dihydroxy-benzenepropanamide]
- substrate of DOPA decarboxylase, in words (DOPA decarboxylase): not a substrate
- activity of the enzyme (formation of dopamine) with the substance as substrate, in words (DOPA decarboxylase; assay performed twice): No activity of the enzyme was detected
- improving the behavior of lesioned animals ([1]; LDA administered intraperitoneally): highly active
- effect of co-administration of carbidopa on the activity of LDA ([2]; increasing relative amount of carbidopa with respect to LDA): positively affect the activity of LDA
- duration of the rotation effect ([2]; intravenous LDA together with carbidopa, data not shown): more than 2 hours
